# Data: patent US6583120B1, “Erythromycin derivative with antibiotic activity” (Zambon Group S.A., priority 1998, dated 2003)
# Key:
# [1] = tested on: Streptococcus pneumoniae UC 41; test: In vivo therapeutic efficacy (PD50), experimental pulmonary infection in mice; conditions: pulmonitis
# [2] = tested on: Streptococcus pyogenes C 203; test: as above; conditions: for PD50: mice, pulmonary infection
# [3] = tested on: Haemophilus influenzae; test: In vitro antibacterial activity (MIC), Gram-negative; conditions: for MIC Range: 11 strains tested; for MIC50 / MIC90: Haemophilus influenzae
# [4] = tested on: Branhamella catarrhalis; test: as above; conditions: for MIC Range: 5 strains tested; for MIC50 / MIC90: Moraxella catarrhalis
# [5] = tested on: Klebsiella pneumoniae; test: as above; conditions: for MIC Range: 6 strains tested; for MIC50 / MIC90: Klebsiella pneumoniae
# [6] = tested on: Escherichia coli; test: as above; conditions: 3 strains tested
# [7] = tested on: Streptococcus pneumoniae; test: In vitro antibacterial activity (MIC), erythromycin-sensitive strains; conditions: for MIC Range: 18 strains tested, erythromycin-sensitive; for MIC50 / MIC90: Streptococcus pneumoniae
# [8] = tested on: Streptococcus group A; test: as above; conditions: for MIC Range: 15 strains tested, erythromycin-sensitive
# [9] = tested on: Streptococcus agalactiae; test: as above; conditions: for MIC Range: 4 strains tested, erythromycin-sensitive; for MIC50 / MIC90: Streptococcus agalactiae
# [10] = tested on: Staphylococcus aureus; test: as above; conditions: for MIC Range: 13 strains tested, erythromycin-sensitive; for MIC50 / MIC90: Staphylococcus aureus
# [11] = tested on: recently clinically isolated, erythromycin-resistant strains of Streptococcus pneumoniae; test: In vitro antibacterial activity (MIC), broth-scalar dilution micromethod, erythromycin-resistant clinical isolates; conditions: 18 h, 37° C.
# [12] = oral single dose 24 hours before the infection
# [13] = oral single dose 48 hours before the infection
# [14] = oral single dose 1 hour after the infection
# [15] = oral single dose 72 hours before the infection
# [16] = Strain 871, erythromycin-resistant
# [17] = Strain 1035, erythromycin-resistant
# [18] = Strain 1047, erythromycin-resistant
# [19] = Strain 1051, erythromycin-resistant
# [20] = Strain 1188, erythromycin-resistant
# [21] = Strain 1392, erythromycin-resistant
# [22] = Strain 9114, erythromycin-resistant
# [23] = Strain 9117, erythromycin-resistant
SMILES,"PD50 [2, 14] [µmol/kg]",MIC Range [3] [µg/mL],MIC Range [4] [µg/mL],MIC50 [4] [µg/mL],MIC90 [4] [µg/mL],MIC Range [5] [µg/mL],MIC50 [5] [µg/mL],MIC90 [5] [µg/mL],MIC Range [7] [µg/mL],MIC50 [7] [µg/mL],MIC90 [7] [µg/mL],MIC50 [8] [µg/mL],MIC90 [8] [µg/mL],MIC Range [8] [µg/mL],MIC Range [9] [µg/mL],MIC50 [9] [µg/mL],MIC90 [9] [µg/mL],MIC Range [10] [µg/mL],MIC50 [10] [µg/mL],MIC90 [10] [µg/mL],also measured
CC[C@H]1OC(=O)[C@H](C)[C@@H](O[C@H]2C[C@@](C)(OC)[C@@H](O)[C@H](C)O2)[C@H](C)[C@@H](O[C@@H]2O[C@H](C)C[C@H](N(C)C)[C@H]2O)[C@](C)(O)C[C@@H](C)CN(C)[C@H](C)[C@@H](O)[C@]1(C)O [Azithromycin],5.32,0.25 to 1,0.0078 to 0.0156,0.0156,0.0156,4 to 8,4,8,0.0156 to 0.5,0.0312,0.0625,0.0625,0.125,0.0625 to 1,0.0312 to 0.25,0.0625,0.25,0.5 to 1,0.5,1,"PD50 [1, 12]: 16.45 µmol/kg; PD50 [1, 13]: 34.13 µmol/kg; therapeutic efficacy (duration of action in vivo), in words ([2]; 72 hours after administration): lose most of their efficacy; PD50 [2, 12]: 16.45 µmol/kg; PD50 [2, 13]: 34.13 µmol/kg; PD50 [2, 15]: >85.4 µmol/kg; MIC50 [3]: 0.5 µg/mL; MIC90 [3]: 1 µg/mL; MIC Range [6]: 2 to 4 µg/mL; MIC [11, 16]: 2 µg/mL; MIC [11, 17]: 2 µg/mL; MIC [11, 18]: 4 µg/mL; MIC [11, 19]: 64 µg/mL; MIC [11, 20]: 8 µg/mL; MIC [11, 21]: 16 µg/mL; MIC [11, 22]: 32 µg/mL; MIC [11, 23]: 64 µg/mL"
CC[C@H]1OC(=O)[C@H](C)[C@@H](O[C@H]2C[C@@](C)(OC)[C@@H](O)[C@H](C)O2)[C@H](C)[C@@H](O[C@@H]2O[C@H](C)C[C@H](N(C)C)[C@H]2O)[C@](C)(OC)C[C@@H](C)C(=O)[C@H](C)[C@@H](O)[C@]1(C)O [Clarithromycin],7.38,2 to 8,0.0078 to 0.0156,0.0156,0.0156,64,64,64,0.0039 to 0.125,0.0156,0.0156,0.0156,0.0156,0.0078 to 0.25,0.0156 to 0.0625,0.0312,0.0625,0.125 to 0.25,0.25,0.25,"therapeutic efficacy (duration of action in vivo), in words ([2]; administered 24 hours before the infection): lose most of their efficacy; PD50 [2, 12]: >85.6 µmol/kg; MIC Range [6]: 16 to 64 µg/mL"
CC[C@H]1OC(=O)[C@H](C)[C@@H](OC2CC(C)(OC)C(O)C(C)O2)[C@H](C)[C@@H](OC2OC(C)CC(N(C)C)C2O)[C@](C)(O)C[C@@H](C)/C(=N\OCCNCCCCCCNCc2nccs2)[C@H](C)[C@@H](O)[C@]1(C)O (stereo partly shown) [Compound A],15.45,1 to 8,0.0019 to 0.125,0.125,0.125,16 to 32,16,32,0.0019 to 0.25,0.0039,0.0156,0.0156,0.0312,0.0078 to 0.5,0.0078 to 0.25,0.0156,0.25,0.25 to 1,0.5,0.5,"PD50 [1, 12]: 16.39 µmol/kg; PD50 [1, 13]: 25.90 µmol/kg; therapeutic efficacy (duration of action in vivo), in words ([2]; 72 hours after administration): still effective; PD50 [2, 12]: 16.39 µmol/kg; PD50 [2, 13]: 25.90 µmol/kg; PD50 [2, 15]: 31.51 µmol/kg; MIC50 [3]: 4 µg/mL; MIC90 [3]: 4 µg/mL; MIC Range [6]: 1 to 8 µg/mL; MIC [11, 16]: 0.5 µg/mL; MIC [11, 17]: 2 µg/mL; MIC [11, 18]: 2 µg/mL; MIC [11, 19]: 1 µg/mL; MIC [11, 20]: 2 µg/mL; MIC [11, 21]: 4 µg/mL; MIC [11, 22]: 0.25 µg/mL; MIC [11, 23]: 0.25 µg/mL"
CC[C@H]1OC(=O)[C@H](C)[C@@H](O[C@H]2C[C@@](C)(OC)[C@@H](O)[C@H](C)O2)[C@H](C)[C@@H](O[C@@H]2O[C@H](C)C[C@H](N(C)C)[C@H]2O)[C@](C)(O)C[C@@H](C)/C(=N\OCOCCOC)[C@H](C)[C@@H](O)[C@]1(C)O [Roxithromycin],–,4 to 16,0.0312 to 0.0625,0.0312,0.0625,>64,> 64,> 64,0.0156 to 0.5,0.0625,0.0625,0.0625,0.0625,0.0312 to 1,0.0625 to 0.25,0.125,0.25,0.25 to 1,0.5,1,MIC50 [3]: 8 µg/mL; MIC90 [3]: 8 µg/mL
